Structures can show the parent of a compound that is named as a salt.
Tested on: P. infestans
Test: whole plant or invertebrate
Type: in vivo
Conditions: Phytophthora infestans, in Solanum tuberosum, read-out: P. infestans % inhibition

| SMILES | inhibition at 100 µM [%] |
| --- | --- |
| Cc1ccc(-c2noc(-c3ccc(S(C)(=O)=O)cc3)n2)cc1 [Compound 89, 3-(4-Methylphenyl)-5-[4-(methylsulfonyl)phenyl]-1,2,4-oxadiazole] | 8 |
| CN1CCN(C(=O)c2cccc(-c3cc(-c4ccc(C(F)(F)F)cc4)[nH]n3)c2)CC1 [Compound 147, {3-[5-(4-Trifluoromethylphenyl)-1H-pyrazol-3-yl]phenyl}(4-methylpiperazin-1-yl)methanone] | 81 |
| Cc1cc(F)ccc1-c1cnc(-c2cccc(NC(=O)[C@@H](N)CCC(N)=O)c2)o1 [Compound 131, (2S)-2-Amino-N1-{3-[5-(4-fluoro-2-methylphenyl)-1,3-oxazol-2-yl]phenyl}pentanediamide hydrochloride] | 47 |
| CCOc1cccc(-c2cc(-c3ccc(OC(F)(F)F)cc3)[nH]n2)c1 [Compound 165, 5-(3-Ethoxyphenyl)-3-[4-(trifluoromethoxy)phenyl]-1H-pyrazole] | 2 |
| Clc1cccc(-c2cc(-c3ccc4c(c3)OCCO4)n[nH]2)c1 [Compound 80, 5-(3-Chlorophenyl)-3-(2,3-dihydro-1,4-benzodioxin-6-yl)-1H-pyrazole] | 77 |
| Oc1cc(-c2cc(-c3cccc(C(F)(F)F)c3)no2)ccc1Cl [Compound 49, 5-(4-Chloro-3-hydroxyphenyl)-3-[3-(trifluoromethyl)phenyl]-isoxazole] | 3 |
| O=C(O)c1ccc(-c2cc(-c3ccc(F)cc3)[nH]n2)cc1 [Compound 142, 4-[5-(4-Fluorophenyl)-1H-pyrazol-3-yl]benzoic acid] | 46 |
| O=C(Nc1ccc(O)cc1)c1ccc(-c2nc(-c3ccc(N4CCCC4)cc3)c[nH]2)cc1 [Compound 55, N-(4-Hydroxyphenyl)-4-{4-[4-(pyrrolidin-1-yl)phenyl]-1H-imidazol-2-yl}benzamide] | 85 |
| CSc1ccc(-c2nc(-c3ccc(C(=O)O)cc3)no2)cc1 [Compound 96, 4-{5-[4-(Methylsulfanyl)phenyl]-1,2,4-oxadiazol-3-yl}benzoic acid] | 4 |
| COc1cc(Cl)cc(-c2nc(-c3ccc(OC(F)(F)F)cc3)co2)c1 [Compound 130, 2-(3-Chloro-5-methoxyphenyl)-4-[4-(trifluoromethoxy)phenyl]-1,3-oxazole] | 9 |
| COc1cc(C(F)(F)F)ccc1-c1cnc(-c2cccc(C(=O)O)c2)o1 [Compound 122, 3-{5-[2-Methoxy-4-(trifluoromethyl)phenyl]-1,3-oxazol-2-yl}benzoic acid] | 36 |
| CCOc1ccc(-c2coc(-c3cccc(C(C)C)c3)n2)cc1 [Compound 110, 4-(4-Ethoxyphenyl)-2-[3-(propan-2-yl)phenyl]-1,3-oxazole] | 18 |
| Oc1ccc(-c2c[nH]c(-c3ccc(Br)cc3)n2)cc1 [Compound 118, 2-(4-Bromophenyl)-5-(4-hydroxyphenyl)-1H-imidazole] | 83 |
| COC(=O)Nc1cccc(-c2ncc(-c3ccc(Cl)c(Cl)c3)o2)c1 [Compound 120, Methyl {3-[5-(3,4-dichlorophenyl)-1,3-oxazol-2-yl]phenyl}carbamate] | 12 |
| CSc1ccc(Cl)c(-c2nc(-c3cccc(OC(F)(F)F)c3)no2)c1 [Compound 65, 5-[2-Chloro-5-(methylsulfanyl)phenyl]-3-[3-(trifluoromethoxy)phenyl]-1,2,4-oxadiazole] | 31 |
| COc1ccc(-c2c[nH]c(-c3ccc(Br)cc3)n2)cc1 [Compound 117, 2-(4-Bromophenyl)-5-(4-methoxyphenyl)-1H-imidazole] | 97 |
| CCc1ccc(-c2cc(-c3ccc(N4CCC4)cc3)on2)cc1 [Compound 90, 5-[4-(Azetidin-1-yl)phenyl]-3-(4-ethylphenyl)-1,2-oxazole] | 13 |
| CN1CCN(c2ccc(-c3cc(-c4cc(F)cc(F)c4)[nH]n3)cc2)CC1 [Compound 146, 1-{4-[5-(3,5-Difluorophenyl)-1H-pyrazol-3-yl]phenyl}-4-methylpiperazine] | 95 |
| CS(=O)(=O)Nc1cccc(-c2ncc(-c3ccc(Cl)c(Cl)c3)o2)c1 [Compound 119, N-{3-[5-(3,4-Dichlorophenyl)-1,3-oxazol-2-yl]phenyl} methanesulfonamide] | 15 |
| COCCOC(=O)Nc1cccc(-c2nc(-c3ccc(OC(F)(F)F)cc3)c[nH]2)c1 [Compound 137, 2-Methoxyethyl (3-{4-[4-(trifluoromethoxy)phenyl]-1H-imidazol-2-yl}phenyl) carbamate] | 77 |
| Oc1ccc(-c2noc(-c3ccc(Cl)cc3)n2)cc1 [Compound 70, 5-(4-Chlorophenyl)-3-(4-hydroxyphenyl)-1,2,4-oxadiazole] | 33 |
| Cc1ccc(-c2cc(-c3cccc(OC(F)(F)F)c3)no2)cc1C [Compound 53, 5-(3,4-Dimethylphenyl)-3-[3-(trifluoromethoxy)phenyl]-isoxazole] | 23 |
| CCOc1ccc(-c2cc(-c3ccc(C)c(C)c3)[nH]n2)cc1 [Compound 134, 3-(3,4-Dimethylphenyl)-5-(4-ethoxyphenyl)-1H-pyrazole] | 19 |

| SMILES | inhibition at 100 µM [%] |
| --- | --- |
| Brc1cccc(-c2cc(-c3ccc4nccnc4c3)n[nH]2)c1 [Compound 112, 6-[5-(3-Bromophenyl)-1H-pyrazol-3-yl]quinoxaline] | 44 |
| O=C(O)c1ccc(-c2cc(-c3cccc(C(F)(F)F)c3)no2)cc1 [Compound 83, 4-{3-[3-(Trifluoromethyl)phenyl]-1,2-oxazol-5-yl}benzoic acid] | 26 |
| CCOC(=O)Nc1cccc(-c2c[nH]c(-c3ccc(F)cc3)n2)c1 [Compound 108, Ethyl {3-[2-(4-fluorophenyl)-1H-imidazol-5-yl]phenyl}carbamate] | 51 |
| O=C(Nc1ccc(-c2nc(-c3ccc(OC(F)(F)F)cc3)n[nH]2)cc1)C(F)(F)F [Compound 61, 2,2,2-Trifluoro-N-(4-{5-[4-(trifluoromethoxy)phenyl]-1H-1,2,4-triazol-3-yl}phenyl)acetamide] | 71 |
| O=[N+]([O-])c1ccc(-c2nc(-c3cccc(C(F)(F)F)c3)no2)cc1 [Compound 73, 5-(4-Nitrophenyl)-3-[3-(trifluoromethyl)phenyl]-1,2,4-oxadiazole] | 2 |
| O=C(O)c1ccc(-c2n[nH]c(-c3ccc(Cl)cc3)n2)cc1 [Compound 56, 4-[5-(4-Chlorophenyl)-1H-1,2,4-triazol-3-yl]benzoic acid hydrochloride] | 17 |
| CN1CCOc2cc(-c3nc(-c4cccc(N5CCOCC5)c4)no3)ccc21 [Compound 98, 4-Methyl-7-{3-[3-(morpholin-4-yl)phenyl]-1,2,4-oxadiazol-5-yl}-3,4-dihydro-2H-1,4-benzoxazine] | 22 |
| COc1ccc(-c2nc(-c3cccc(Cl)c3)n[nH]2)cc1OC [Compound 158, 3-(3-Chlorophenyl)-5-(3,4-dimethoxyphenyl)-1H-1,2,4-triazole] | 59 |
| Cc1cccc(-c2nc(-c3cccc(F)c3)c[nH]2)c1 [Compound 150, 4-(3-Fluorophenyl)-2-(3-methylphenyl)-1H-imidazole] | 91 |
| Oc1ccc(-c2coc(-c3ccc4ncccc4c3)n2)cc1 [Compound 60, 6-[4-(4-Hydroxyphenyl)-1,3-oxazol-2-yl]quinoline] | 9 |
| COCCNC(=O)Nc1cccc(-c2cc(-c3cccc(OC(F)(F)F)c3)[nH]n2)c1 [Compound 148, 1-{3-[5-(3-Trifluoromethoxyphenyl)-1H-pyrazol-3-yl]phenyl}-3-(2-methoxyethyl)urea] | 6 |
| CCc1ccc(-c2c[nH]c(-c3cccc(C(=O)N4CCN(C)CC4)c3)n2)cc1 [Compound 138, (4-Methylpiperazin-1-yl){3-[4-(4-ethylphenyl)-1H-imidazol-2-yl]phenyl}methanone] | 68 |
| NCCCC[C@H](N)C(=O)Nc1ccc(-c2nc(-c3ccc(OC(F)(F)F)cc3)n[nH]2)cc1 [Compound 58, (2S)-2,6-Diamino-N-(4-{3-[4-(trifluoromethoxy)phenyl]-1H-1,2,4-triazol-5-yl}phenyl)hexanamide dihydrochloride] | 89 |
| CCOc1cccc(-c2nc(-c3cccc(C)c3)n[nH]2)c1 [Compound 106, 5-(3-Ethoxyphenyl)-3-(3-methylphenyl)-1H-1,2,4-triazole] | 44 |
| COc1ccc(NC(=O)Nc2ccc(-c3cc(-c4cccc(F)c4)on3)cc2)cc1 [Compound 57, 1-{4-[5-(3-Fluorophenyl)-1,2-oxazol-3-yl]phenyl}-3-(4-methoxyphenyl)urea] | 8 |
| CCN(CC)C(=O)c1cccc(-c2ncc(-c3ccc(C(F)(F)F)cc3OC)o2)c1 [Compound 123, N,N-diethyl-3-{5-[2-methoxy-4-(trifluoromethyl)phenyl]-1,3-oxazol-2-yl}benzamide] | 33 |
| CCc1ccc(-c2cc(-c3cccc(NC(=O)OCCOC)c3)[nH]n2)cc1 [Compound 126, 2-Methoxyethyl {3-[5-(4-ethylphenyl)-1H-pyrazol-3-yl]phenyl}carbamate] | 81 |
| O=C(c1ccc(-c2n[nH]c(-c3ccc(Cl)cc3)n2)cc1)N1CCOCC1 [Compound 59, {4-[5-(4-Chlorophenyl)-1H-1,2,4-triazol-3-yl]phenyl}(morpholin-4-yl)methanone hydrochloride] | 87 |
| CN1CCN(c2ccc(-c3cc(-c4cc(F)ccc4F)[nH]n3)cc2)CC1 [Compound 149, 1-{4-[5-(2,5-Difluorophenyl)-1H-pyrazol-3-yl]phenyl}-4-methylpiperazine] | 8 |
| O=C(Nc1cccc(-c2c[nH]c(-c3ccc(F)cc3)n2)c1)C(F)(F)F [Compound 54, 2,2,2-Trifluoro-N-{3-[2-(4-fluorophenyl)-1H-imidazol-5-yl]phenyl}acetamide] | 91 |
| Cc1cccc(-c2n[nH]c(-c3cccc(O)c3)n2)c1 [Compound 107, 5-(3-Hydroxyphenyl)-3-(3-methylphenyl)-1H-1,2,4-triazole] | 91 |
| COc1ccc(-c2n[nH]c(-c3ccc(Br)cc3)n2)cc1 [Compound 164, 5-(4-Bromophenyl)-3-(4-methoxyphenyl)-1H-1,2,4-triazole] | 8 |

Reference: patent US20250228242A1 (priority 2021, published 2025)
